Data: patent US8937077B2, “Bicyclic diamines as janus kinase inhibitors” (Merck Sharp & Dohme Corp., priority 2010, dated 2015)
pIC50: −log10 of the molar value. Where two headings read alike, the source gives them in different places. Values belong to the compound of their own block, whether it stands above or below them.

Target: T1, Jak1 (Homo sapiens, UniProt P23458)
T1 construct: using a recombinant purified GST-tagged catalytic domain for each enzyme; GST; purchased Invitrogen M4290
Test: Jak Biochemical HTRF Assay (Jak1)
Settings: recombinant GST-tagged catalytic domain
Description: Compounds of formula I can be prepared according to the general procedures described in the Schemes and Examples herein, using appropriate materials. Representative compounds of the present invention are exemplified herein below. The compounds exemplified are not, however, to be construed as limiting the scope of the invention in any manner. The examples further illustrate details for the preparation of the compounds of the present invention. Those skilled in the art will readily understand that known variations of protecting groups, of reagents, as well as of the conditions and processes of the following preparative procedures, can be used to prepare these compounds. It is also understood that whenever a chemical reagent is not commercially available, such a chemical reagent can be readily prepared by those skilled in the art by either following or adapting known methods described in the literature or described herein. Chiral analogs were prepared via incorporation of chiral reagents or obtained after chiral chromatography separation of a racemically generated analog. All temperatures are degrees Celsius unless otherwise noted. Mass spectra (MS) were measured either by electrospray ion-mass spectroscopy (ESMS) or by atmospheric pressure chemical ionization mass spectroscopy (APCI). Jak1 data were obtained using the in vitro assay described below.
Jak Biochemical HTRF Assay Protocol
The ability of compounds to inhibit the activity of Jak1, Jak2, Jak3, and Tyk2 was measured using a recombinant purified GST-tagged catalytic domain for each enzyme (Invitrogen Jak1 #M4290, […]) in an HTRF format biochemical assay. The reactions employed a common peptide substrate, LCB-EQEDEPEGDYFEWLW-NH2 (in-house). The basic assay protocol is as follows: First, […] of diluted compounds in DMSO were dispensed into the wells of a dry 384-well Black plate (Greiner #781076) using a Labcyte Echo 555 acoustic dispenser. Subsequent reagent additions employed an Agilent Bravo. Next, 18 μL, of 1.11X enzyme and 1.11X substrate in 1X assay buffer (Invitrogen kinase buffer #PV3189, 2 mM DTT, 0.05% BSA) were added to the wells and shaken and then preincubated for 30 minutes at room temperature to allow compound binding to equilibrate. After equilibration, 2 μL of 10X ATP in 1X assay buffer was added to initiate the kinase reaction and the plates were shaken and then incubated at room temperature for 120 minutes. At the end of the incubation, 20 μL of 2X stop buffer (streptavidin-Dylight (Thermo #21845), Eu-tagged pY20 antibody (Perkin Elmer #AD0067), EDTA, HEPES, and Triton) was added to quench the reaction. Plates were shaken and centrifuged and then incubated 60 minutes at room temperature and then read on a Perkin Elmer Envision (λex=337 nm, λem=665 and 615 nm, TRF delay time=20 μs). HTRF signal=10,000*665 nm reading/615 nm reading. After normalization to untreated controls, the percent inhibition of the HTRF signal at each compound concentration was calculated. The plot of percent inhibition versus the log of compound concentration was fit with a 4-parameter dose response equation to calculate IC50 values.

[1] = IC50 class, read-out: Jak1 activity

T1 sequence (P23458 875-1153 limits assumed): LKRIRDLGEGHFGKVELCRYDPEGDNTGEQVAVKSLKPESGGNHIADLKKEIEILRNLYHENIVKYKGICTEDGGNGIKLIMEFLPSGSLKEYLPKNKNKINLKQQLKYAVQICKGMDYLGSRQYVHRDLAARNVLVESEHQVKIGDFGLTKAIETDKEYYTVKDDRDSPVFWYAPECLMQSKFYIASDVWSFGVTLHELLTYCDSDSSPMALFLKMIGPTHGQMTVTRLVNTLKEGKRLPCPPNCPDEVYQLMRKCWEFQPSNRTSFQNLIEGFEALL

Compound: O=C(c1cccc(N2CCOCC2)c1)N1CCC[C@@H]2[C@H]1CCN2c1ncnc2[nH]ccc12 [Example 29-22, 4-{(3aR,7aR)-4-[(3-morpholin-4-ylphenyl)carbonyl]octahydro-1H-pyrrolo[3,2-b]pyridin-1-yl}-7H-pyrrolo[2,3-d]pyrimidine]
pIC50 [1]: 6.00 to 7.00

Compound: O=C(O)c1ccc(CNC(=O)N2CCC[C@@H]3[C@H]2CCN3c2ncnc3[nH]ccc23)cc1 [Example 25, 4-[({[(3aR,7aR)-1-(7H-pyrrolo[2,3-d]pyrimidin-4-yl)octahydro-4H-pyrrolo[3,2-b]pyridin-4-yl]carbonyl}amino)methyl]benzoic acid]
pIC50 [1]: 6.00 to 7.00

Compound: O=C(OC1CCCCC1)N1CCC[C@@H]2[C@H]1CCN2c1ncnc2[nH]ccc12 [Example 3-32, cyclohexyl (3aR,7aR)-1-(7H-pyrrolo[2,3-d]pyrimidin-4-yl)octahydro-4H-pyrrolo[3,2-b]pyridine-4-carboxylate]
pIC50 [1]: 7.00 to 8.00
pIC50 (31.8 μM ATP, read-out: Representative IC50 values): 7.96

Compound: O=C1CCCN1CCOC(=O)N1CCC[C@@H]2[C@H]1CCN2c1ncnc2[nH]ccc12 [Example 3-36, 2-(2-oxopyrrolidin-1-yl)ethyl (3aR,7aR)-1-(7H-pyrrolo[2,3-d]pyrimidin-4-yl)octahydro-4H-pyrrolo[3,2-b]pyridine-4-carboxylate]
pIC50 [1]: 6.00 to 7.00

Compound: O=C(c1c[nH]c2ccncc12)N1CCC[C@@H]2[C@H]1CCN2c1ncnc2[nH]ccc12 [Example 29-45, 4-[(3aR,7aR)-4-(1H-pyrrolo[3,2-c]pyridin-3-ylcarbonyl)octahydro-1H-pyrrolo[3,2-b]pyridin-1-yl]-7H-pyrrolo[2,3-d]pyrimidine]
pIC50 [1]: 7.00 to 8.00

Compound: CNC(=O)c1ccc(COC(=O)N2CCC[C@@H]3[C@H]2CCN3c2ncnc3[nH]ccc23)cc1 [Example 7-3, 4-(methylcarbamoyl)benzyl (3aR,7aR)-1-(7H-pyrrolo[2,3-d]pyrimidin-4-yl)octahydro-4H-pyrrolo[3,2-b]pyridine-4-carboxylate]
pIC50 [1]: 6.00 to 7.00

Compound: CN(C)CCN(C)C(=O)c1ccc(COC(=O)N2CCC[C@@H]3[C@H]2CCN3c2ncnc3[nH]ccc23)cc1 [Example 7-5, 4-{[2-(dimethylamino)ethyl](methyl)carbamoyl}benzyl (3aR,7aR)-1-(7H-pyrrolo[2,3-d]pyrimidin-4-yl)octahydro-4H-pyrrolo[3,2-b]pyridine-4-carboxylate]
pIC50 [1]: 6.00 to 7.00

Compound: COC(=O)c1ccc(COC(=O)N2CCC[C@H]3[C@@H]2CCN3c2ncnc3[nH]ccc23)cc1 [Example 5, 4-(methoxycarbonyl)benzyl (3aS,7aS)-1-(7H-pyrrolo[2,3-d]pyrimidin-4-yl)octahydro-4H pyrrolo[3,2-b]pyridine-4-carboxylate]
pIC50 [1]: 6.00 to 7.00

Compound: Cn1c(C(=O)N2CCC[C@@H]3[C@H]2CCN3c2ncnc3[nH]ccc23)cc2ccccc21 [Example 29-21, 4-{(3aR,7aR)-4-[(1-methyl-1H-indol-2-yl)carbonyl]octahydro-1H-pyrrolo[3,2-b]pyridin-1-yl}-7H-pyrrolo[2,3-d]pyrimidine]
pIC50 [1]: 7.00 to 8.00

Compound: O=C(c1ccsc1)N1CCC[C@@H]2[C@H]1CCN2c1ncnc2[nH]ccc12 [Example 29-32, 4-[(3aR,7aR)-4-(thiophen-3-ylcarbonyl)octahydro-1H-pyrrolo[3,2-b]pyridin-1-yl]-7H-pyrrolo[2,3-d]pyrimidine]
pIC50 [1]: 7.00 to 8.00

Compound: CCCCC(=O)N1CCCC2C1CCN2c1ncnc2[nH]ccc12 (racemic) [Example 29-2, 4-(4-pentanoyloctahydro-1H-pyrrolo[3,2-b]pyridin-1-yl)-7H-pyrrolo[2,3-d]pyrimidine]
pIC50 [1]: 7.00 to 8.00

Compound: O=C(c1cn2cccnc2n1)N1CCC[C@@H]2[C@H]1CCN2c1ncnc2[nH]ccc12 [Example 29-27, 4-[(3aR,7aR)-4-(imidazo[1,2-a]pyrimidin-2-ylcarbonyl)octahydro-1H-pyrrolo[3,2-b]pyridin-1-yl]-7H-pyrrolo[2,3-d]pyrimidine]
pIC50 [1]: 7.00 to 8.00

Compound: O=C(c1ccc(N2CCOCC2)cc1)N1CCCC2C1CCN2c1ncnc2[nH]ccc12 [Example 29-1, (3aS,7aS and 3aR,7aR) 4-{4-[(4-morpholin-4-ylphenyl)carbonyl]octahydro-1H-pyrrolo[3,2-b]pyridin-1-yl}-7H-pyrrolo[2,3-d]pyrimidine]
pIC50 [1]: 6.00 to 7.00

Compound: O=C(c1ccc2ccccc2c1)N1CCC[C@@H]2[C@H]1CCN2c1ncnc2[nH]ccc12 [Example 29-26, 4-[(3aR,7aR)-4-(naphthalen-2-ylcarbonyl)octahydro-1H-pyrrolo[3,2-b]pyridin-1-yl]-7H-pyrrolo[2,3-d]pyrimidine]
pIC50 [1]: 7.00 to 8.00

The next lines start with the values.

pIC50 [1]: 7.00 to 8.00
Compound: O=C(OCCCc1ccccc1)N1CCCC2C1CCN2c1ncnc2[nH]ccc12 (stereo not shown) [Example 3-7, 3-phenylpropyl 1-(7H-pyrrolo[2,3-d]pyrimidin-4-yl)octahydro-4H-pyrrolo[3,2-b]-pyridine-4-carboxylate]

pIC50 [1]: 6.00 to 7.00
Compound: NCc1ccc(COC(=O)N2CCC[C@@H]3[C@H]2CCN3c2ncnc3[nH]ccc23)cc1 [Example 9, 4-(aminomethyl)benzyl (3aR,7aR)-1-(7H-pyrrolo[2,3-d]pyrimidin-4-yl)octahydro-4H-pyrrolo[3,2-b]pyridine-4-carboxylate]

pIC50 [1]: 6.00 to 7.00
Compound: O=C(OCc1ccccc1)N1CCCC2C1CCN2c1ccnc2[nH]ccc12 [Example 30, (3aS,7aS and 3aR,7aR) benzyl 1-(1H-pyrrolo[2,3-b]pyridine-4-yl)octahydro-4H-pyrrolo[3,2-b]pyridine-4-carboxylate]

pIC50 [1]: 7.00 to 8.00
Compound: O=C(OCc1ccccn1)N1CCCC2C1CCN2c1ncnc2[nH]ccc12 (stereo not shown) [Example 3-12, pyridin-2-ylmethyl 1-(7H-pyrrolo[2,3-d]pyrimidin-4-yl)octahydro-4H-pyrrolo[3,2-b]-pyridine-4-carboxylate]

pIC50 [1]: 7.00 to 8.00
Compound: O=C(c1cccnc1)N1CCC[C@@H]2[C@H]1CCN2c1ncnc2[nH]ccc12 [Example 29-10, 4-[(3aR,7aR)-4-(pyridin-3-ylcarbonyl)octahydro-1H-pyrrolo[3,2-b]pyridin-1-yl]-7H-pyrrolo[2,3-d]pyrimidine]

pIC50 [1]: 6.00 to 7.00
Compound: COC(=O)c1cccc(COC(=O)N2CCC[C@@H]3[C@H]2CCN3c2ncnc3[nH]ccc23)c1 [Example 3-20, 3-(methoxycarbonyl)benzyl (3aR,7aR)-1-(7H-pyrrolo[2,3-d]pyrimidin-4-yl)octahydro-4H-pyrrolo[3,2-b]pyridine-4-carboxylate]

pIC50 [1]: 7.00 to 8.00
Compound: C[C@@H](OC(=O)N1CCCC2C1CCN2c1ncnc2[nH]ccc12)c1ccccc1 (stereo partly drawn) [Example 3-23, (1R)-1-phenylethyl 1-(7H-pyrrolo[2,3-d]pyrimidin-4-yl)octahydro-4H-pyrrolo[3,2-b]-pyridine-4-carboxylate]

pIC50 [1]: 8.00 to 9.00
Compound: COc1ccc(COC(=O)N2CCCC3C2CCN3c2ncnc3[nH]ccc23)cc1 (stereo not shown) [Example 3-14, 4-methoxybenzyl 1-(7H-pyrrolo[2,3-d]pyrimidin-4-yl)octahydro-4H-pyrrolo[3,2-b]-pyridine-4-carboxylate]

pIC50 [1]: 7.00 to 8.00
Compound: O=S(=O)(Cc1ccccc1)N1CCC[C@@H]2[C@H]1CCN2c1ncnc2[nH]ccc12 (single isomer, unassigned) [Example 32-7]

pIC50 [1]: 7.00 to 8.00
Compound: CC(Cc1ccccc1)C(=O)N1CCC[C@@H]2[C@H]1CCN2c1ncnc2[nH]ccc12 (mixture of isomers) [Example 29-56, (2S and 2R)-2-methyl-3-phenyl-1-[(3aR,7aR)-1-(7H-pyrrolo[2,3-d]pyrimidin-4-yl)octahydro-4H-pyrrolo[3,2-b]pyridine-4-yl]propan-1-one]

pIC50 [1]: 7.00 to 8.00
Compound: NC(=O)c1ccc(COC(=O)N2CCC[C@@H]3[C@H]2CCN3c2ncnc3[nH]ccc23)cc1 [Example 7-2, 4-carbamoylbenzyl (3aR,7aR)-1-(7H-pyrrolo[2,3-d]pyrimidin-4-yl)octahydro-4H-pyrrolo[3,2-b]pyridine-4-carboxylate]

pIC50 [1]: 7.00 to 8.00
Compound: CCCCOC(=O)N1CCCC2C1CCN2c1ncnc2[nH]ccc12 (racemic) [Example 3-3, butyl 1-(7H-pyrrolo[2,3-d]pyrimidin-4-yl)octahydro-4H-pyrrolo[3,2-b]pyridine-4-carboxylate]

pIC50 [1]: 6.00 to 7.00
Compound: O=C(O)c1ccc(COC(=O)N2CCC[C@@H]3[C@H]2CCN3c2ncnc3[nH]ccc23)cc1 [Example 6, 4-[({[(3aR,7aR)-1-(7H-pyrrolo[2,3-d]pyrimidin-4-yl)octahydro-4H-pyrrolo[3,2-b]pyridine-4-yl]carbonyl}oxy)methyl]benzoic acid]
